From article PMC12608622, “Novel Ruthenacarborane–NSAID Conjugates” (Molecules, 2025)

What was measured:
Test in all cases: fluorescence-based COX inhibitor assay kit
Format in all cases: biochemical
[1] = molecular target: T1, COX-2 (Homo sapiens, UniProt P35354); conditions: […] compound
T1 construct: gene PTGS2; construct not described
T1 sequence (P35354 18-604): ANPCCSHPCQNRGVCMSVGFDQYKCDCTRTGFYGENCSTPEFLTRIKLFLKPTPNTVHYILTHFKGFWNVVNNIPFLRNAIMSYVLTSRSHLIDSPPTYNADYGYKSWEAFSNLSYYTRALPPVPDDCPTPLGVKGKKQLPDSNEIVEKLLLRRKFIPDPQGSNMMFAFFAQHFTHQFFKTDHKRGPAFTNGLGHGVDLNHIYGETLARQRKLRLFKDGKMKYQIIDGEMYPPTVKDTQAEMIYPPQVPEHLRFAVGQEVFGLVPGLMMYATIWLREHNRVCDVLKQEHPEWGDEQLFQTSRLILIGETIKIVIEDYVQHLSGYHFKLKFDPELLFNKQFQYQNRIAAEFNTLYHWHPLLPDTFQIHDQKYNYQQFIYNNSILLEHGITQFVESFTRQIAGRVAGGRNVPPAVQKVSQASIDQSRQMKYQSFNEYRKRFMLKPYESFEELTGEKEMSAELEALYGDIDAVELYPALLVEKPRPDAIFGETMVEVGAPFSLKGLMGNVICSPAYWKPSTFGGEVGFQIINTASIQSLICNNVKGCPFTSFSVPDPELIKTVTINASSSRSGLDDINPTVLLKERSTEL

[2] = molecular target: T1, COX-2
[3] = molecular target: T2, COX-1 (Ovis aries, UniProt P05979); conditions: […] compound
T2 construct: gene PTGS1; construct not described
T2 sequence (P05979 25-600): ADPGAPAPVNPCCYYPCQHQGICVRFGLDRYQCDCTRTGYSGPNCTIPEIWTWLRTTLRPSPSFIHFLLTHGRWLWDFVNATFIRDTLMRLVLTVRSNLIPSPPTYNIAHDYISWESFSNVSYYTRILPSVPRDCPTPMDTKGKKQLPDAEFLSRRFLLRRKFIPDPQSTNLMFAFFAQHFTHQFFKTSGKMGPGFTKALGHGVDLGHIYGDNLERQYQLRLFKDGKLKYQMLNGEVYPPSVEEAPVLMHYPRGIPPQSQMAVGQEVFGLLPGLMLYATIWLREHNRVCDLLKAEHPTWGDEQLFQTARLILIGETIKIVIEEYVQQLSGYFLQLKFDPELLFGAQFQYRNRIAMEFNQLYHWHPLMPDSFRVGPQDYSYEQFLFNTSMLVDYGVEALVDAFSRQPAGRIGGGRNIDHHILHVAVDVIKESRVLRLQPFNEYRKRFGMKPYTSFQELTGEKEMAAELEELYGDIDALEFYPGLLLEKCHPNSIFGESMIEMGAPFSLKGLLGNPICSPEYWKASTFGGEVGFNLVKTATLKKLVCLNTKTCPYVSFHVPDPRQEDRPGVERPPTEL
Excerpt: fluorescence-based COX inhibitor assay kit on COX-1

Cesium 1-(1′-hydroxymethyl)-nido-carborane [2a]
% Inhibition @ 100 μM / COX-2 [1]: 38%

Cesium 1-(2′-hydroxyethyl)-nido-carborane [2b]
IC50 [2]: 84.1 µM

[Ru(η^6-p-cymene)-1-{methyl (R/S)-2-[4-(2-fluorobiphenyl-4-yl)propanoic acid ester]-closo-C2B9H10}] [4a]
% Inhibition @ 100 μM / COX-1 [3]: 33%

[Ru(η^6-p-cymene)-2-{ethyl (R/S)-2-[4-(2-fluorobiphenyl-4-yl)propanoic acid ester]-closo-C2B9H10}] [4b]
% Inhibition @ 100 μM / COX-1 [3]: 40%

[Ru(η^6-p-cymene)-2-{ethyl (R/S)-2-[4-(2-propylphenyl)propanoic acid ester]-closo-C2B9H10}] [6b]
% Inhibition @ 100 μM / COX-1 [3]: 30%
